Patent US10301306B2, “Substituted dihydro-1H-pyrrolo[3,2-c]pyridin-4(5H)-ones as RIPK3 inhibitors” (BRISTOL-MYERS SQUIBB COMPANY, priority 2014, dated 2019)

Target: RIPK3 (Homo sapiens (Human), UniProt Q9Y572)
Test: RIPK3 HTRF Kinase Assay
Assay type: binding
Conditions: RIPK3 1 nM; HTRF probe 23 nM; 60 min at room temperature; read-out: IC50 for Inhibition of RIPK3

Sequence of RIPK3 (Q9Y572 whole entry, species assumed): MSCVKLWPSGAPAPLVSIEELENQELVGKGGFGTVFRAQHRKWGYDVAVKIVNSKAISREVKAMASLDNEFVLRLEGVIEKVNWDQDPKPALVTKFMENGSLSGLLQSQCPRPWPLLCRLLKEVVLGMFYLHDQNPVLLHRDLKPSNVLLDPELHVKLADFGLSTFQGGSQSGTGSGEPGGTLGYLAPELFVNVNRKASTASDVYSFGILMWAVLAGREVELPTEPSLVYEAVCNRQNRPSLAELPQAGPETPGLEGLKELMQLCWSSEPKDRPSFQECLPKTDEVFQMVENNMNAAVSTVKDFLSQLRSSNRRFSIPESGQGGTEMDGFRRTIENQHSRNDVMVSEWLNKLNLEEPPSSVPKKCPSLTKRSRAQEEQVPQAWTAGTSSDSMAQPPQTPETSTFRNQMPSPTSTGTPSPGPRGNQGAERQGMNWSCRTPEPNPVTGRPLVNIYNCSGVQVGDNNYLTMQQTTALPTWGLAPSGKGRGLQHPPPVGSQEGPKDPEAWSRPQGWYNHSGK

Structure (SMILES)	IC50 [nM]
Cc1csc(-c2c3c(n(Cc4ccc(F)cc4C#N)c2-c2ccncc2)CCNC3=O)c1 [Example 142]	< 30
Cc1cscc1-c1c2c(n(Cc3ccc(F)cc3C#N)c1-c1ccncc1)CCNC2=O [Example 143]	100 to 15000
N#Cc1cc(F)ccc1Cn1c2c(c(/C=C/c3ccccc3)c1-c1ccncc1)C(=O)NCC2 [Example 145]	31 to 100
O=C1NCCc2c1c(-c1ccc(F)cc1)c(-c1ccnc(NCCO)c1)n2Cc1ccc(C(F)(F)F)cc1F [Example 146]	31 to 100
COCCNc1cc(-c2c(-c3ccc(F)cc3)c3c(n2Cc2ccc(C(F)(F)F)cc2F)CCNC3=O)ccn1 [Example 147]	100 to 15000
CCC(=O)Nc1cc(-c2c(-c3ccc(F)cc3)c3c(n2Cc2ccc(C(F)(F)F)cc2F)CCNC3=O)ccn1 [Example 149]	31 to 100
COCC(=O)Nc1cc(-c2c(-c3ccc(F)cc3)c3c(n2Cc2ccc(C(F)(F)F)cc2F)CCNC3=O)ccn1 [Example 150]	31 to 100
CC1(C)CNC(=O)c2c(-c3ccc(F)cc3)c(-c3ccncc3)n(CC3CCOCC3)c21 [Example 152, 3-(4-Fluorophenyl)-7,7-dimethyl-2-(pyridin-4-yl)-1-((tetrahydro-2H-pyran-4-yl)methyl)-6,7-dihydro-1H-pyrrolo[3,2-c]pyridin-4(5H)-one]	100 to 15000
CC1(C)CNC(=O)c2c1[nH]c(-c1ccncc1)c2-c1ccc(F)cc1 [Example 153, 3-(4-Fluorophenyl)-7,7-dimethyl-2-(pyridin-4-yl)-6,7-dihydro-1H-pyrrolo[3,2-c]pyridin-4(5H)-one]	< 30
Cn1c(-c2ccncc2)c(-c2ccc(F)cc2)c2c1C(C)(C)CNC2=O [Example 154, 3-(4-Fluorophenyl)-1,7,7-trimethyl-2-(pyridin-4-yl)-6,7-dihydro-1H-pyrrolo[3,2-c]pyridin-4(5H)-one]	100 to 15000
O=c1[nH]ccc2c1c(-c1ccc(F)cc1)c(-c1ccnc(Cl)c1)n2Cc1ccc(C(F)(F)F)cc1F [Example 155, 2-(2-Chloropyridin-4-yl)-1-(2-fluoro-4-(trifluoromethyl)benzyl)-3-(4-fluorophenyl)-1H-pyrrolo[3,2-c]pyridin-4(5H)-one]	100 to 15000
CCC(=O)Nc1cc(-c2c(-c3ccc(F)cc3)c3c(=O)[nH]ccc3n2Cc2ccc(C(F)(F)F)cc2F)ccn1 [Example 156, N-(4-(1-(2-Fluoro-4-(trifluoromethyl)benzyl)-3-(4-fluorophenyl)-4-oxo-4,5-dihydro-1H-pyrrolo[3,2-c]pyridin-2-yl)pyridin-2-yl)propionamide]	< 30
O=c1[nH]ccc2c1c(-c1ccc(F)cc1)c(-c1ccncc1)n2Cc1ccc(C(F)(F)F)cc1F [Example 157, 1-(2-Fluoro-4-(trifluoromethyl)benzyl)-3-(4-fluorophenyl)-2-(pyridin-4-yl)-1H-pyrrolo[3,2-c]pyridin-4(5H)-one]	< 30
Cc1ccc(S(=O)(=O)n2c3c(c(-c4ccc(F)cc4)c2-c2ccncc2)C(=O)NCC3)cc1 [Example 162, 3-(4-Fluorophenyl)-2-(pyridin-4-yl)-1-tosyl-6,7-dihydro-1H-pyrrolo[3,2-c]pyridin-4(5H)-one]	100 to 15000
CC(C)(C)OC(=O)Nc1cccc(-c2c3c(n(Cc4ccc(Cl)cc4F)c2-c2ccncc2)CCNC3=O)c1 [Example 163]	31 to 100
Cc1ccc(-c2c3c(n(Cc4ccc(Cl)cc4F)c2-c2ccncc2)CCNC3=O)s1 [Example 164]	< 30
Cn1cc(-c2c3c(n(Cc4ccc(Cl)cc4F)c2-c2ccncc2)CCNC3=O)cn1 [Example 165]	100 to 15000
O=C1NCCc2c1c(-c1ccncc1F)c(-c1ccncc1)n2Cc1ccc(Cl)cc1F [Example 166]	100 to 15000
COC(=O)c1cccc(-c2c3c(n(Cc4ccc(Cl)cc4F)c2-c2ccncc2)CCNC3=O)c1 [Example 167]	100 to 15000

Structure (SMILES)	IC50 [nM]
Cc1cc(-c2c3c(n(Cc4ccc(Cl)cc4F)c2-c2ccncc2)CCNC3=O)ccn1 [Example 168]	100 to 15000
Nc1cccc(-c2c3c(n(Cc4ccc(Cl)cc4F)c2-c2ccncc2)CCNC3=O)c1 [Example 169]	100 to 15000
CCCC(=O)Nc1cccc(-c2c3c(n(Cc4ccc(Cl)cc4F)c2-c2ccncc2)CCNC3=O)c1 [Example 170]	100 to 15000
Cc1cc(Cn2c3c(c(-c4cccc(NC(=O)OC(C)(C)C)c4)c2-c2ccncc2)C(=O)NCC3)n(C)n1 [Example 171]	31 to 100
COC(=O)c1cccc(-c2c3c(n(Cc4cc(C)nn4C)c2-c2ccncc2)CCNC3=O)c1 [Example 172]	100 to 15000
Cc1cc(Cn2c3c(c(-c4cccc(-c5c(C)noc5C)c4)c2-c2ccncc2)C(=O)NCC3)n(C)n1 [Example 173]	100 to 15000
Cc1cc(Cn2c3c(c(-c4cccc(N)c4)c2-c2ccncc2)C(=O)NCC3)n(C)n1 [Example 174]	100 to 15000
Cc1cc(Cn2c3c(c(-c4cccc(NC(=O)Cc5ccccc5)c4)c2-c2ccncc2)C(=O)NCC3)n(C)n1 [Example 175]	100 to 15000
Cc1cc(Cn2c3c(c(-c4cccc(NC(=O)c5ccccc5)c4)c2-c2ccncc2)C(=O)NCC3)n(C)n1 [Example 176]	100 to 15000
Cc1cc(Cn2c3c(c(-c4cccc(NC(=O)C5CC5)c4)c2-c2ccncc2)C(=O)NCC3)n(C)n1 [Example 177]	100 to 15000
Cc1cc(Cn2c3c(c(-c4cccc(NC=O)c4)c2-c2ccncc2)C(=O)NCC3)n(C)n1 [Example 178]	100 to 15000
CCC(=O)Nc1cccc(-c2c3c(n(Cc4cc(C)nn4C)c2-c2ccncc2)CCNC3=O)c1 [Example 179]	100 to 15000
Cc1cc(Cn2c3c(c(-c4cccc(CCc5ccccc5)c4)c2-c2ccncc2)C(=O)NCC3)n(C)n1 [Example 180]	100 to 15000
Cc1cc(Cn2c3c(c(-c4cccc(CCC5CCCCC5)c4)c2-c2ccncc2)C(=O)NCC3)n(C)n1 [Example 181]	100 to 15000
Cc1cc(Cn2c3c(c(-c4ccc(F)cc4)c2-c2ccncc2F)C(=O)NCC3)n(C)n1 [Example 182]	31 to 100
COc1cnccc1-c1c(-c2ccc(F)cc2)c2c(n1Cc1cc(C)nn1C)CCNC2=O [Example 183]	< 30
Cc1cc(Cn2c3c(c(-c4ccc(F)cc4)c2-c2cn[nH]c2)C(=O)NCC3)n(C)n1 [Example 184]	100 to 15000
Cc1cc(Cn2c3c(c(-c4cccc(NC(=O)OC(C)(C)C)c4)c2-c2ccnc(NC(=O)C4CC4)c2)C(=O)NCC3)n(C)n1 [Example 185, tert-Butyl (3-(2-(2-(cyclopropanecarboxamido)pyridin-4-yl)-1-((1,3-dimethyl-1H-pyrazol-5-yl)methyl)-4-oxo-4,5,6,7-tetrahydro-1H-pyrrolo[3,2-c]pyridin-3-yl)phenyl)carbamate]	100 to 15000
